We go through two compounds from US6369212B1, “Cytochrome P450 gene highly expressed in the incompatible interaction” (Korea Kumbo Petrochemical Co., Ltd., priority 2000, dated 2002).

This assay has as its system PepCYP mRNA. The assay can be described thus: RNA gel blot analysis of PepCYP expression in pepper fruits drop-applied with ABA or JA. Further details: species or system pepper (Capsicum annuum). On the procedure: Both ripe-red and unripe-mature-green fruits of pepper cv Nokkwang were grown and harvested under greenhouse conditions. For wound treatments, five healthy ripe and unripe fruits were deeply scratched with a knife and incubated at 100% relative humidity at 27° C. in the dark. Ten μl of ABA at 4 and 40 μM, or JA at 4 and 40 μM were drop-applied to both ripe and unripe sets of five fruits, respectively. After incubation under the conditions described above, the fruits were excised to 1 cm^2 at the drop-application site for the fungus, ABA or JA, and at the wounding site. The samples were then frozen in liquid nitrogen. Leaf, root, and stem samples were harvested from 3-week-old plants and handled as described above for fungal inoculation and wounding.
Total RNA (10 μg/lane) from each plant tissue used in this study was separated on 1.2% denaturing agarose gels in the presence of formaldehyde. RNA gel-blotting, hybridization and washing were conducted as described by the manufacturer of the positively charged nylon membrane employed (Hybond N^+; Amersham Pharmacia Biotech). Radiolabeled probes were prepared with [α-^32P]dCTP (Amersham Pharmacia Biotech) using a random primer-labeling kit (Boehringer, Mannheim, Germany).
Jasmonic acid (JA) is a plant hormone with roles in mechanical wounding responses (Creelman et al. 1992; Creelman and Mullet 1997). ABA is hypothesized to be a key component in wound-signaling cascade leading to the activation of a defense gene (Pena-Cortés et al. 1996; Wasternack and Partheir 1997). Thus, we further examined whether the wound-inducible PepCYP expression is inducible by ABA or JA treatments. RNA gel blot analysis was performed with total RNAs prepared from the application sites of both ripe and unripe fruits drop-applied with ABA or JA for 24 h.

Each structure is given as a SMILES string.

As for `CC1=CC(=O)CC(C)(C)[C@@]1(O)/C=C/C(C)=C\C(=O)O` [ABA, abscisic acid], the “expression of PepCYP” value (both ripe and unripe fruits, 4 and 40 μM drop-applied, 24 h) is reported as “did not affect”.

For the compound `CC/C=C\C[C@H]1C(=O)CC[C@@H]1CC(=O)O` [JA, Jasmonic acid], the “accumulation of PepCYP mRNA” value (ripe fruit, 40 μM drop-applied, 24 h) was “highly accumulated”. Moreover, the “induction of PepCYP expression” value (unripe fruit, 100, 400 and 1000 μM (data not shown)) is on record as “No induction”.
